In article PMC5458211, “Mitochondrial VDAC1-based peptides: Attacking oncogenic properties in glioblastoma” (Oncotarget, 2017):

Key:
[1] = system: U-87MG intracranial xenograft tumors; assay: U-87MG intracranial-orthotopic xenograft, tumor volume by MRI; format: in vivo, human U-87MG in nude mice
Procedure: B. U-87MG cells (2×10^5) were incubated for 12 h with the indicated concentrations of DMSO, Retro-Tf-D-LP4 peptide (Pep), or Retro-Tf-D-LP4 encapsulated in PLGA nanoparticles (PLGA-Pep). Samples of Retro-Tf-D-LP4 encapsulated in PLGA nanoparticles were centrifuged (15000g, 5 min) to separate the supernatant (Sup), containing free peptide, and the pellet, containing encapsulated Retro-Tf-D-LP4 peptide. Cell death was analyzed by PI staining and FACS analysis. C. Graphical representation of the orthotopic animal experiment. D. MRI imaging of brains 29 days post-intravenal treatment start with DMSO (1.05%), Retro-Tf-D-LP4 (10 mg/kg) encapsulated in PLGA nanoparticles or Tf-D-Retro-LP4 peptide (10 mg/Kg), as described in Materials and Methods available online in Supplemental information. E. Calculated tumor volumes after 20 (dark grey bars) and 29 (light grey bars) days post-treatment start. Results = mean ± SE (n = 6) (* p<0.05, *** p<0.001). F. Kaplan-Meier survival curves showing statistically significant differences in survival curves between the PBS/DMSO and Retro-Tf-D-LP4 treated mice. Cumulative Kaplan-Meier survival curves of control mice (red line), Retro-Tf-D-LP4 peptide (10mg/kg) encapsulated in PGLA nanoparticles (black line, ** p=0.006) or Retro-Tf-D-LP4 peptide (10 mg/kg, pink line, *** p=0.0003). The arrow indicates the end of the peptide treatment (day 46).
For the intracranial-orthotopic xenograft mouse model, U-87MG cells (8×10^4) were engrafted into a nude mouse brain using a stereotactic device. Forty eight hours after surgery, mice were randomized into three groups (6 animals/group) and treated every third day with DMSO (1.44%), Retro-Tf-D-LP4 (10mg/Kg) or Retro-Tf-D-LP4 (10mg/Kg) encapsulated by PLGA. Mice were subjected to MRI, sacrificed; brains were excised and processed for IHC. Tumor volume was analyzed using VivoQuant 2.10 software.
PLGA encapsulation of the VDAC1-based minutes using an UltraMicroPump III (World Precision peptide Retro-Tf-D-LP4 Instruments, Sarasota, FL). After infusion, the needle was left in place for 1 minute before slow withdrawal. The burr […]
100% DMSO and then diluted 20-fold with sterile DDW into three groups (6 animals/group) and treated every to reach a concentration of 25 mg/ml in a final DMSO third day with DMSO (1.44%), Retro-Tf-D-LP4 (10 concentration of 5%. PLGA (50 mg) was dissolved in mg/kg) or Retro-Tf-D-LP4 (10 mg/kg) encapsulated by acetone (1 ml). […] Tumor volume was analyzed using VivoQuant 2.10 10 ml of aqueous solution containing 1% PVA (w/v). […]
of the experiments, the mice were sacrificed, tumors were IHC of tumor tissue sections excised and ex vivo weight was determined. […]

U-87MG cells = assay: Apoptosis by FITC-Annexin V/PI staining and flow cytometry, U-87MG; format: cell-based, human; conditions: 3 h at 37°C, Fig 6G-H
Procedure: Sections were also hematoxylin-stained and visualized by microscopy. B. Tissue lysates obtained from controls and several TF-D-LP4-TTs were immunoblotted for Nestin, Sox2, NGFR, CD133, and Klf4. C. Quantitative analysis of immunoblots is shown (n=2-4). D. Immunoblot analysis of, Klf4, Sox2, Nestin and Musashi expression in U-87MG and G7 cell lines, using specific antibodies. E. Quantitative analysis of immunoblots. […] G. G7 (·) and U-87MG cells (○) (2×10^5) were incubated for 3 h with the DMSO (0.15%) or with the indicated concentration of Retro-Tf-D-LP4 peptide in serum-free growth medium at 37°C and then subjected to FITC-Annexin V/PI staining and flow cytometry analysis. H. Representative FACS analysis of DMSO- (left) and 5 μM of Retro-Tf-D-LP4- (right) treated G7 or U-87MG cells.
Cells (6×10^5 /ml) were incubated in 500 μl serum-free medium with the peptide of interest for 6 h at 37°C in the presence of 5% CO2. The cells were then trypsinized, centrifuged (1500xg, 5 min), washed with PBS and analyzed for cell death using propidium iodide (PI) staining and flow cytometer (Beckton-Dickinson, San Jose, CA) and BD CellQuest Pro software. Apoptotic cell death was also analyzed by PI and annexin V-FITC staining, and by acridine orange and ethidium bromide staining and light microscopy (Olympus LX2-KSP).

SMILES: CC[C@H](C)[C@H](NC(=O)[C@H](Cc1ccc(O)cc1)NC(=O)[C@@H]1CCCN1C(=O)[C@H](CCCNC(=N)N)NC(=O)[C@H](Cc1c[nH]cn1)NC(=O)[C@H](CO)NC(=O)[C@H](Cc1c[nH]c2ccccc12)NC(=O)[C@@H](NC(=O)[C@H](Cc1c[nH]c2ccccc12)NC(=O)[C@H](CCC(=O)O)NC(=O)[C@@H](CCCCN)NC(=O)[C@@H](CCCCN)NC(=O)[C@@H](CC(C)C)NC(=O)[C@@H](CCC(=O)O)NC(=O)[C@H](NC(=O)[C@@H](C)NC(=O)[C@H](NC(=O)[C@@H](CC(N)=O)NC(=O)[C@@H](CC(C)C)NC(=O)[C@@H](C)NC(=O)[C@@H](Cc1c[nH]c2ccccc12)NC(=O)[C@H](NC(=O)[C@@H](C)NC(=O)CNC(=O)[C@@H](CC(N)=O)NC(=O)[C@@H](CO)NC(=O)[C@@H](CC(N)=O)NC(=O)[C@H](CCCCN)NC(=O)[C@H](Cc1c[nH]c2ccccc12)NC(=O)[C@@H](NC(=O)[C@H](Cc1c[nH]c2ccccc12)NC(=O)[C@@H](N)CCCCN)[C@@H](C)O)[C@H](C)O)C(C)C)[C@H](C)O)[C@@H](C)O)C(=O)N[C@@H](C)C(=O)N[C@@H](Cc1c[nH]cn1)C(=O)O [Retro-Tf-D-LP4]
- decrease in orthotopic xenograft tumor volume, day 20 ([1]; 10 mg/kg i.v., every third day, 20 days after start of treatment, MRI, n = 6): 60%
- decrease in orthotopic xenograft tumor volume, day 29 ([1]; 10 mg/kg i.v., every third day, 29 days after start of treatment, MRI, n = 6): 90%
- free vs PLGA-encapsulated peptide, effectiveness ([1]; intracranial model, tumor size and survival): more effective both in reducing tumor size and in prolonging mice survival
- reduction of tumor volume, maximum (Discussion) ([1]; intracranial-orthotopic xenograft, i.v., free peptide): up to 90%
- apoptosis of U-87MG cells (U-87MG cells): induces apoptosis
